This note sets out measurements from US5726159A, “Antithrombotic agents” (Eli Lilly and Company, priority 1995, dated 1998).

Assay type in all cases: biochemical
What all share (details): concentration required to double the clotting time

Experiment [1] relates to Human plasma. Briefly: Human plasma anticoagulation, prothrombin time (PT). On the procedure:
(§1) Dog plasma and rat plasma is obtained from conscious mixed-breed hounds (either sex, Hazelton-LRE, Kalamazoo, Mich., U.S.A.) or from anesthetized male Sprague-Dawley rats (Harlan Sprague-Dawley, Inc., Indianapolis, Ind., U.S.A.) by venipuncture into 3.8 percent citrate. Fibrinogen is prepared from in-date ACD human blood as the fraction I-2 according to previous procedures and specifications. […] Human fibrinogen is also purchased as 98 percent pure/plasmin free from American Diagnostica, Greenwich, Conn. Coagulation reagents ACTIN, Thromboplastin, and Human plasma are from Baxter Healthcare Corp., Dade Division, Miami, Fla. Bovine thrombin from Parke-Davis ([…], Mich.) is used for coagulation assays in plasma.
(§2) Coagulation assay procedures are as previously described. […] A CoAScreener coagulation instrument (American LABor, Inc.) is used for all coagulation assay measurements. The prothrombin time (PT) is measured by adding 0.05 mL saline and 0.05 mL Thromboplastin-C reagent to 0.05 mL test plasma. The activated partial thromboplastin time (APTT) is measured by incubation of 0.05 mL test plasma with 0.05 mL Actin reagent for 120 seconds followed by 0.05 mL CaCl2 (0.02M). The thrombin time (TT) is measured by adding 0.05 mL saline and 0.05 mL thrombin (10 NIH units/mL) to 0.05 mL test plasma. The compounds of Formula I are added to human or animal plasma over a wide range of concentrations to determine prolongation effects on the APTT, PT, and TT assays. Linear extrapolations are performed to estimate the concentrations required to double the clotting time for each assay.

In experiment [2] the test system is Human plasma. Briefly: Human plasma anticoagulation, thrombin time (TT). On the procedure: as §1, §2
For experiment [3], the system named is Human plasma. Briefly: Human plasma anticoagulation, activated partial thromboplastin time (APTT). On the procedure: as §1, §2

Counter-ions that a name gives are not always drawn.

In the case of `CS(=O)(=O)CC(=O)N[C@H](CC1CCCCC1)C(=O)N1CCC[C@H]1C(=O)NCc1ccc(C(=N)N)cc1` [Example 92, MeSO2 CH2 CO-D-Cha-Pro-p-NHCH2 C6 H4 C(NH)NH2.HCl], in experiment [1], the “2x Clotting time PT” value was determined as 340 ng/mL. The “2x Clotting time TT” value in experiment [2] is reported as 8.9 ng/mL. In experiment [3], the “2x Clotting time APTT” value is 210 ng/mL.
`Nc1cc(CNC(=O)[C@@H]2CCCN2C(=O)[C@@H](CC2CCCCC2)NCC(=O)O)ccn1` [Example 73, HO2 CCH2 -D-Cha-Pro-4-NHCH2 -2-aminopyridine.HCl]: the “2x Clotting time PT” value in experiment [1] came to 330 ng/mL. Further, the “2x Clotting time TT” value in experiment [2] worked out at 21 ng/mL. For the same compound, the “2x Clotting time APTT” value in experiment [3] is given as 340 ng/mL.
The corresponding values for `N=C(N)Nc1ccc(CNC(=O)[C@@H]2CCCN2C(=O)[C@@H]2NCC[C@@H]3CCCC[C@@H]32)cc1` [Example 38, D-1-Piq-Pro-p-NHCH2 C6 H4 NHC(NH)NH2.2HCl] are 11,100 ng/mL, 540 ng/mL and 6,100 ng/mL.
As to `N=C(N)c1ccc(CNC(=O)[C@@H]2C[C@@H]3CCCC[C@@H]3N2C(=O)[C@H]2CCCCN2)cc1` [Example 20, D-hPro-Ohi-p-NHCH2 C6 H4 C(NH)NH2.3HCl], the “2x Clotting time PT” value in experiment [1] is listed as 600 ng/mL. For the same compound, the “2x Clotting time TT” value in experiment [2] is 62 ng/mL. Besides, the “2x Clotting time APTT” value in experiment [3] came to 550 ng/mL.
On to `N=C(N)N1CCC(CCNC(=O)[C@@H]2CCCN2C(=O)[C@@H](CC2CCCCC2)NCC(=O)O)CC1` [Example 57, HO2 CCH2 -D-Cha-Pro-4-NHCH2 CH2 -1-amidinopiperidine.HCl], for which, in experiment [1], the “2x Clotting time PT” value amounted to 340 ng/mL. Besides, the “2x Clotting time TT” value in experiment [2] was 14 ng/mL. Besides, the “2x Clotting time APTT” value in experiment [3] worked out at 360 ng/mL.
For the compound `O=C(O)CN[C@H](CC1CCCCC1)C(=O)N1CCC[C@H]1C(=O)NCC1=CCNCC1` [Example 58, HO2 CCH2 -D-Cha-Pro-4-NHCH2 -3,4-dehydro-piperidine.HCl], the “2x Clotting time PT” value in experiment [1] is listed as 11,400 ng/mL. Also, the “2x Clotting time TT” value in experiment [2] is on record as 710 ng/mL. In addition, the “2x Clotting time APTT” value in experiment [3] was 14,300 ng/mL.
Turning to `N=C(N)c1ccc(CNC(=O)[C@@H]2CCCN2C(=O)[C@@H](CC2CCCCC2)NCCCC(=O)O)cc1` [Example 85, HOOCCH2 CH2 CH2 -D-Cha-Pro-p-NHCH2 C6 H4 C(NH)NH2.HCl], in experiment [1], the “2x Clotting time PT” value worked out at 197 ng/mL. Besides, the “2x Clotting time TT” value in experiment [2] is given as 4.9 ng/mL. Also, the “2x Clotting time APTT” value in experiment [3] is reported as 100 ng/mL.
Regarding `N=C(N)c1ccc(CNC(=O)[C@@H]2CCCN2C(=O)[C@@H](CCC2CCCCC2)NCC(=O)O)cc1` [Example 88, HOOCCH2 -D-hCha-Pro-p-NHCH2 C6 H4 C(NH)NH2.HCl], the “2x Clotting time PT” value in experiment [1] turned out to be 200 ng/mL. In addition, the “2x Clotting time TT” value in experiment [2] stood at 4 ng/mL. The “2x Clotting time APTT” value in experiment [3] turned out to be 100 ng/mL.
“HOOCCH2 -D-hPhe-Pro-p-NHCH2 C6 H4 C(NH)NH2.HCl [Example 87]”: the “2x Clotting time PT” value in experiment [1] turned out to be 310 ng/mL. In experiment [2], the “2x Clotting time TT” value came to 9 ng/mL. For the same compound, the “2x Clotting time APTT” value in experiment [3] was determined as 260 ng/mL.
For `O=C(O)CN[C@H](CC1CCCCC1)C(=O)N1CCC[C@H]1C(=O)NCCC1CCNCC1` [Example 54, HO2 CCH2 -D-Cha-Pro-4-NHCH2 CH2 -piperidine.HCl], in that order: 2,200 ng/mL, 140 ng/mL and 3,300 ng/mL.
As for `N=C(N)N1CCC(CNC(=O)[C@@H]2CCCN2C(=O)[C@@H](CC2CCCCC2)NCC(=O)O)CC1` [Example 56, HO2 CCH2 -D-Cha-Pro-4-NHCH2 -1-amidinopiperidine.HCl], the “2x Clotting time PT” value in experiment [1] was determined as 200 ng/mL. The “2x Clotting time TT” value in experiment [2] was found to be 5 ng/mL. In experiment [3], the “2x Clotting time APTT” value is listed as 160 ng/mL.
For `NCC1CCC(CNC(=O)[C@@H]2CCCN2C(=O)[C@@H](CC2CCCCC2)NCC(=O)O)CC1` (stereo partly drawn) [Example 79, HO2 CCH2 -D-Cha-Pro-4-NHCH2 C6 H10 CH2 NH2.HCl], the “2x Clotting time PT” value in experiment [1] was 2,400 ng/mL. In addition, in experiment [2], the “2x Clotting time TT” value is reported as 140 ng/mL. The “2x Clotting time APTT” value in experiment [3] is recorded as 1,700 ng/mL.
For the compound `CCS(=O)(=O)N[C@H](Cc1ccccc1)C(=O)N1CCC[C@H]1C(=O)NCCc1ccc(NC(=N)N)cc1` [Example 35, EtSO2 -D-Phe-Pro-p-NHCH2 CH2 C6 H4 CNH(NH)NH2.HCl], in experiment [1], the “2x Clotting time PT” value was 78,400 ng/mL. For the same compound, the “2x Clotting time TT” value in experiment [2] is recorded as 4,500 ng/mL. In addition, in experiment [3], the “2x Clotting time APTT” value was 50,400 ng/mL.
For `N=C(N)c1ccc(CCNC(=O)[C@@H]2CCCN2C(=O)[C@@H]2NCC[C@@H]3CCCC[C@@H]32)cc1` [Example 28, 1-Piq-Pro-p-NHCH2 CH2 -C6 H4 C(=NH)NH2.2HCl], in that order: 8,300 ng/mL, 520 ng/mL and 8,100 ng/mL.
As for `NCc1ccc(CNC(=O)[C@@H]2CCCN2C(=O)[C@@H](CC2CCCCC2)NCC(=O)O)cc1` [Example 78, HO2 CCH2 -D-Cha-Pro-4-NHCH2 C6 H4 CH2 NH2.HCl], the “2x Clotting time PT” value in experiment [1] is reported as 760 ng/mL. Besides, the “2x Clotting time TT” value in experiment [2] was 46 ng/mL. For the same compound, the “2x Clotting time APTT” value in experiment [3] is given as 430 ng/mL.
On to `CCS(=O)(=O)N[C@H](Cc1ccccc1)C(=O)N1CCC[C@H]1C(=O)NCc1cccc(C(=N)N)c1` [Example 24, EtSO2 -D-Phe-Pro-m-NHCH2 -C6 H4 C(=NH)NH2.HCl], for which, in experiment [1], the “2x Clotting time PT” value is recorded as 25,000 ng/mL. Also, in experiment [2], the “2x Clotting time TT” value was 1,000 ng/mL. For the same compound, the “2x Clotting time APTT” value in experiment [3] is reported as 25,900 ng/mL.
`O=C(O)CN[C@H](CC1CCCCC1)C(=O)N1CCC[C@H]1C(=O)NCCCC1=CCNCC1` [Example 60, HO2 CCH2 -D-Cha-Pro-4-NHCH2 CH2 CH2 -3,4-dehydro-piperidine.HCl]: the “2x Clotting time PT” value in experiment [1] is given as 77,700 ng/mL. Moreover, the “2x Clotting time TT” value in experiment [2] is 3,200 ng/mL. Also, the “2x Clotting time APTT” value in experiment [3] was 22,200 ng/mL.
Consider `Nc1ccc(CNC(=O)[C@@H]2CCCN2C(=O)[C@@H](CC2CCCCC2)NCC(=O)O)cc1F` [Example 77, HO2 CCH2 -D-Cha-Pro-4-NHCH2 -2-F-aniline.HCl], for which the “2x Clotting time PT” value in experiment [1] was 890 ng/mL. In experiment [2], the “2x Clotting time TT” value came out at 53 ng/mL. Further, the “2x Clotting time APTT” value in experiment [3] was 1,600 ng/mL.
For `Nc1cc(CCNC(=O)[C@@H]2CCCN2C(=O)[C@@H](CC2CCCCC2)NCC(=O)O)ccn1` [Example 76, HO2 CCH2 -D-Cha-Pro-4-NHCH2 CH2 -2-aminopyridine.HCl], in that order: 560 ng/mL, 29 ng/mL and 490 ng/mL.
`CCS(=O)(=O)N[C@H](Cc1ccccc1)C(=O)N1CCC[C@H]1C(=O)NCCCc1cccc(C(=N)N)c1` [Example 31, EtSO2 -D-Phe-Pro-m-NHCH2 CH2 CH2 -C6 H4 C(=NH)NH2.HCl]: in experiment [1], the “2x Clotting time PT” value was 30,000 ng/mL. In addition, in experiment [2], the “2x Clotting time TT” value is 10,800 ng/mL. Also, the “2x Clotting time APTT” value in experiment [3] is reported as 34,500 ng/mL.
For “D-hPro-Pro-p-NHCH2 C6 H4 C(NH)NH2.HCl [Example 17]”, the “2x Clotting time PT” value in experiment [1] worked out at 400 ng/mL. Moreover, in experiment [2], the “2x Clotting time TT” value came out at 26 ng/mL. Besides, in experiment [3], the “2x Clotting time APTT” value came to 370 ng/mL.
For `CCS(=O)(=O)N[C@H](CC1CCCCC1)C(=O)N1CCC[C@H]1C(=O)NCc1ccc(N)nc1` [Example 84, EtSO2 -D-Cha-Pro-5-NHCH2 -2-aminopyridine.HCl], the “2x Clotting time PT” value in experiment [1] was 1,900 ng/mL. In addition, in experiment [2], the “2x Clotting time TT” value stood at 110 ng/mL. Moreover, the “2x Clotting time APTT” value in experiment [3] is 1,500 ng/mL.
In the case of `N=C(N)N1CC=C(CNC(=O)[C@@H]2CCCN2C(=O)[C@@H](CC2CCCCC2)NCC(=O)O)CC1` [Example 70, HO2 CCH2 -D-Cha-Pro-4-NHCH2 -1-amidino-3,4-dehydro-piperidine.HCl], in experiment [1], the “2x Clotting time PT” value was 180 ng/mL. Also, the “2x Clotting time TT” value in experiment [2] is 2 ng/mL. Also, the “2x Clotting time APTT” value in experiment [3] was 160 ng/mL.
On to `N=C(N)c1ccc(CNC(=O)[C@@H]2CCCN2C(=O)[C@H]2C[C@H]3CCCC[C@H]3CN2)cc1` [Example 19, D-3-Piq-Pro-p-NHCH2 C6 H4 C(NH)NH2.3HCl], for which the “2x Clotting time PT” value in experiment [1] was found to be 540 ng/mL. In experiment [2], the “2x Clotting time TT” value was 58 ng/mL. Further, the “2x Clotting time APTT” value in experiment [3] is 300 ng/mL.
On to `N=C(N)c1ccc(CNC(=O)CN(CCc2ccccc2)C(=O)CNCC(=O)O)cc1` [Example 89, HOOCCH2 -Gly-N-C6 H5 CH2 CH2 Gly-p-NHCH2 C6 H4 C(NH)NH2.HCl], for which the “2x Clotting time PT” value in experiment [1] was 37,000 ng/mL. For the same compound, in experiment [2], the “2x Clotting time TT” value worked out at 570 ng/mL. Besides, the “2x Clotting time APTT” value in experiment [3] is 51,000 ng/mL.
As to `CCS(=O)(=O)N[C@H](CC1CCCCC1)C(=O)N1CCC[C@H]1C(=O)NCc1ccc(N)cc1F` [Example 82, EtSO2 -D-Cha-Pro-4-NHCH2 -3-F-C6 H3 NH2.HCl], in experiment [1], the “2x Clotting time PT” value is given as 3,000 ng/mL. Also, the “2x Clotting time TT” value in experiment [2] is recorded as 130 ng/mL. Moreover, the “2x Clotting time APTT” value in experiment [3] is 3,800 ng/mL.
